Read-outs that look alike come from different tables or passages of the source. Values belong to the compound of their own block, whether it stands above or below them.
Legend:
MIA PaCa-2 cells = experiment: MTT proliferation assay in MIA PaCa-2 cells; type: cell-based, human; conditions: 72 h drug exposure
Description: (§1) The human pancreatic carcinoma MIA PaCa-2 was purchased from China Centre for Type Culture Collection, AsPC-1 and BxPC-3 cell Lines were purchased from Cell Centre of the Institute of Basic Medical Sciences, Chinese Academy of Medical Sciences and Peking Union Medical College. PANC-1 was kindly provided by Nankai Hospital (Tianjin, China). These cancer cell lines were cultured according to the manufacturer’s instruction.
(§2) Then 3-fold diluted concentrations of tested compound were added respectively which was dissolved by DMSO in the ratio of 1:1000. After indicated incubation period, MTT was added to each well and incubated for 4 h at 37 °C. Then, the supernatant was discarded gently, and the precipitate was dissolved in 100 µL of DMSO in each well. The absorbance (A) at 570 nm was detected with a microplate reader (Multiskan MK3; Thermo Fisher Scientific, MA, USA). Vehicle-treated cells were served as the control for the calculation of relative cell viability (%) of treated group at single concentration. IC50 value was calculated directly from the inhibition curve of serial dilution of test compound and was expressed as mean ± SD using the SPSS statistical software (SPSS17.0 Inc., Chicago, IL, USA).

CDK9/cyclinT1 = CDK9/cyclinT1 (Homo sapiens, UniProt P50750); experiment: CDK9/cyclinT1 Lance Ultra Assay, single concentration screen; type: biochemical; conditions: ATP concentration at Km; for inhibition at 0.05 µM: 50 nM, read-out: CDK9 inhibitory rate (%) @ 50nM; for CDK9 inhibitory rate (%) @ 50nM: 0.05 µM
Chain of CDK9/cyclinT1 (P50750 whole entry): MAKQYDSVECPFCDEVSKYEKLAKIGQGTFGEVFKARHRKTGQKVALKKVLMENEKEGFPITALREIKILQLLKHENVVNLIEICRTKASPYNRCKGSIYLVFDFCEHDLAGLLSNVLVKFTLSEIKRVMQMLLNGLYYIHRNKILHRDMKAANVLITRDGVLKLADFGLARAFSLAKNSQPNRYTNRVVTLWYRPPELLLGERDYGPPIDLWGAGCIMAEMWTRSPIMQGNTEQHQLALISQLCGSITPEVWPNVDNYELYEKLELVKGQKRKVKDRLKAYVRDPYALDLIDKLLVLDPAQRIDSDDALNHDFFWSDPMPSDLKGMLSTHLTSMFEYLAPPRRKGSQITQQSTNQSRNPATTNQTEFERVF
Chain of CDK9/cyclinT1 (O60563 whole entry partner): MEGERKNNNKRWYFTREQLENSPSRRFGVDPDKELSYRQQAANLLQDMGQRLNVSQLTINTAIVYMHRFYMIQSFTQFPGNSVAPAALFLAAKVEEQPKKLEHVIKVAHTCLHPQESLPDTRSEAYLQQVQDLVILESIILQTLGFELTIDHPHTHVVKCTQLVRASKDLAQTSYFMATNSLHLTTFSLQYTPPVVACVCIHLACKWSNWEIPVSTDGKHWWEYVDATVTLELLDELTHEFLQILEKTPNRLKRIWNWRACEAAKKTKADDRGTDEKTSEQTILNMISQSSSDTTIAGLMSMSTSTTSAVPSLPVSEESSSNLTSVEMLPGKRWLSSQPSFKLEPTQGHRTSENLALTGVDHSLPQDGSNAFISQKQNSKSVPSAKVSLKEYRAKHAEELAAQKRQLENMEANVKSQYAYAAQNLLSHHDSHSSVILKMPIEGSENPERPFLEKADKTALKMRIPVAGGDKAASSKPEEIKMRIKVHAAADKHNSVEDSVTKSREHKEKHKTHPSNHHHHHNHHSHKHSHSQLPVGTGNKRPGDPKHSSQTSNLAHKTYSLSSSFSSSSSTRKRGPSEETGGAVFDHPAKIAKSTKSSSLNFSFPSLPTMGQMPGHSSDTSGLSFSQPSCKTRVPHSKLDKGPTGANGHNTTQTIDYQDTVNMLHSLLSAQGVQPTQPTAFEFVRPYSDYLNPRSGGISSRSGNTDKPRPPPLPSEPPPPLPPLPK
Description: (§3) CDK kinase activity (IC50 values and inhibitory rate at single concentration) was measured using the kinase profiling services (Shanghai ChemPartner Co., Ltd). Compounds were sent to ChemPartner as a solution in DMSO at concentration of 10 mM.

[1] = Solubility / precipitation observations; type: physicochemical
CDK7 = CDK7 (Homo sapiens, UniProt P50613); experiment: CDK7 kinase IC50, Mobility shift assay; type: biochemical
Chain of CDK7 (P50613 whole entry): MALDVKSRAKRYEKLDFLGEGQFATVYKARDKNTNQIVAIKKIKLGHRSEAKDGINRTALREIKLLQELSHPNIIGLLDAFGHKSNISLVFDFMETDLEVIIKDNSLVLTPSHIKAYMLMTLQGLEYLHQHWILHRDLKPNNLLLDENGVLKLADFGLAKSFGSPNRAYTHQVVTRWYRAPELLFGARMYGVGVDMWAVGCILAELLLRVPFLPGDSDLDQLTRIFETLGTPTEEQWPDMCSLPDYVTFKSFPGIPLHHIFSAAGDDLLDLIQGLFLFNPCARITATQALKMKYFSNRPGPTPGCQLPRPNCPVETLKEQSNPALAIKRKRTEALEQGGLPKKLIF
Chain of CDK7 (P51946 whole entry partner): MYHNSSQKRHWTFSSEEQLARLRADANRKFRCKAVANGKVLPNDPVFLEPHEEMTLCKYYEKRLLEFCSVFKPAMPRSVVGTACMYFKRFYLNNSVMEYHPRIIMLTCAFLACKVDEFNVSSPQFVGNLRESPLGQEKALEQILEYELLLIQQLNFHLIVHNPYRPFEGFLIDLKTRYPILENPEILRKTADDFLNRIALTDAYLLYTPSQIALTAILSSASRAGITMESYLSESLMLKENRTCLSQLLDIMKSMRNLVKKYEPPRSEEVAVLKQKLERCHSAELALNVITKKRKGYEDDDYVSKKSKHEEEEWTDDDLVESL
Chain of CDK7 (P51948 whole entry partner): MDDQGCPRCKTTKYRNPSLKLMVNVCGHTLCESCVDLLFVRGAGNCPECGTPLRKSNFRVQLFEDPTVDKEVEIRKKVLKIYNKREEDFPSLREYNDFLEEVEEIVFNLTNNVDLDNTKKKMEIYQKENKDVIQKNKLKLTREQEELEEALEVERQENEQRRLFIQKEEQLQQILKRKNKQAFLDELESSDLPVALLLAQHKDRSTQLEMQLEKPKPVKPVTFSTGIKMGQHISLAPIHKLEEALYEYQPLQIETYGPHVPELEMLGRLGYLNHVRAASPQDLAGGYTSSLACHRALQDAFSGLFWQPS
Description: as §3

CDK4 = CDK4 (Homo sapiens, UniProt P11802); experiment: CDK4 kinase IC50, Mobility shift assay; type: biochemical
Chain of CDK4 (P11802 whole entry): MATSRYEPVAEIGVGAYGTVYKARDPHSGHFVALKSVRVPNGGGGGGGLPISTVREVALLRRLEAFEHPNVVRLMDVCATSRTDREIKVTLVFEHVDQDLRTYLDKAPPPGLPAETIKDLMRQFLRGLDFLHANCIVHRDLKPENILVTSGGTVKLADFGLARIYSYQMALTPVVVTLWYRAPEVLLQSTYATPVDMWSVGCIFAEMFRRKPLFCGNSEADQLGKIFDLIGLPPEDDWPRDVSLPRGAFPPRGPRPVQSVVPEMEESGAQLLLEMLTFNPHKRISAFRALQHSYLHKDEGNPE
Chain of CDK4 (P30281 whole entry partner): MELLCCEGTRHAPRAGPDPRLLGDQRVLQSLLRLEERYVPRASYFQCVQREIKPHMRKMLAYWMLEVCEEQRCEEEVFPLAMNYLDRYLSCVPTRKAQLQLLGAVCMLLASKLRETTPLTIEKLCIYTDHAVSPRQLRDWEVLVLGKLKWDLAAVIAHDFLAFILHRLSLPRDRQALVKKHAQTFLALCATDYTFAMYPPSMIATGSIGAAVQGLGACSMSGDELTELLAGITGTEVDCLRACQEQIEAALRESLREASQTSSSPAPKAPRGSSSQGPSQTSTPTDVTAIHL
Description: as §3

CDK9 = CDK9 (Homo sapiens, UniProt P50750); experiment: CDK9 kinase IC50, Mobility shift assay; type: biochemical
Chain of CDK9 (P50750 whole entry): as the sequence (P50750 whole entry) above
Chain of CDK9 (O60563 whole entry partner): as the sequence (O60563 whole entry partner) above
Description: as §3

CDK2 = CDK2 (Homo sapiens, UniProt P24941); experiment: CDK2 kinase IC50, Mobility shift assay; type: biochemical
Description: as §3

CDK1 = CDK1 (Homo sapiens, UniProt P06493); experiment: CDK1 kinase IC50, Mobility shift assay; type: biochemical
Chain of CDK1 (P06493 whole entry): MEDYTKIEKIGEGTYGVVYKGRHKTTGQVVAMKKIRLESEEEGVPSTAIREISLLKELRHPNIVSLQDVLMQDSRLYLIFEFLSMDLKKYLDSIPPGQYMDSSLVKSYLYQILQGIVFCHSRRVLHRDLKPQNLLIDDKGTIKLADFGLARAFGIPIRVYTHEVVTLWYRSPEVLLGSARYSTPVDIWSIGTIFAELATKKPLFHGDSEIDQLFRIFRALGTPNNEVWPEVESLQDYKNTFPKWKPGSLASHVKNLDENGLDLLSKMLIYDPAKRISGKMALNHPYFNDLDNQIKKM
Chain of CDK1 (P14635 whole entry partner): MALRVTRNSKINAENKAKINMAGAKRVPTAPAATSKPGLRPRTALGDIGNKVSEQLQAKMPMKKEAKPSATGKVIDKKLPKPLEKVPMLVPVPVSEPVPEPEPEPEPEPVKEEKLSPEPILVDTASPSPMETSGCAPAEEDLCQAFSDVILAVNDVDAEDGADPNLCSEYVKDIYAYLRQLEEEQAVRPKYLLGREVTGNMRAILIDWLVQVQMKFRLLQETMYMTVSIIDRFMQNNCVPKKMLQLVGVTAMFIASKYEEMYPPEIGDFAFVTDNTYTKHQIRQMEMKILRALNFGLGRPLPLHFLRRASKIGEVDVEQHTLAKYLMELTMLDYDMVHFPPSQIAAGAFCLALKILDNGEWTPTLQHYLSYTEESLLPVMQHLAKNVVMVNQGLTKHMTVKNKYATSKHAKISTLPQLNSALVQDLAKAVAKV
Description: as §3

BxPC-3 = experiment: MTT proliferation assay in BxPC-3 cells; type: cell-based; conditions: Homo sapiens, 72 h drug exposure
Description: as §1
as §2, with “Cells were planted in 96-well plates at a density of 3000–4000 cells per well and incubated at 37 °C in a humidified CO2 incubator for 24 h. Then 3-fold” for “Then 3-fold”

AsPC-1 = experiment: MTT proliferation assay in AsPC-1 cells; type: cell-based; conditions: Homo sapiens, ASPC1; 72 h drug exposure
Description: as §1
as §2, with “Cells were planted in 96-well plates at a density of 3000–4000 cells per well and incubated at 37 °C in a humidified CO2 incubator for 24 h. Then 3-fold” for “Then 3-fold”

PANC-1 = experiment: MTT proliferation assay in PANC-1 cells; type: cell-based; conditions: Homo sapiens, 72 h drug exposure
Description: as §1
as §2, with “Cells were planted in 96-well plates at a density of 3000–4000 cells per well and incubated at 37 °C in a humidified CO2 incubator for 24 h. Then 3-fold” for “Then 3-fold”

Oral PK study in rats = type: in vivo; conditions: male, SD, rat, plasma, 30 mg/kg
Description: Synthetic compound was administered as a suspension or solution in the saline with 5% DMSO and 5% Solutol. GCTB was dissolved in saline. All of the experiments were approved by the Institutional Animal Care and Use Committee of Institute of Medicinal Biotechnology. All experiments were carried out under ethics committee–approved protocols and in compliance with the guidelines for the care of laboratory animals of Institute of Medicinal Biotechnology, CAMS.
SD rats were purchased from Beijing Vital River Laboratory Animal Technology Co., Ltd and randomly divided into three groups (n = 3, male). The animals were housed under standard conditions and fastened for 12 h before the treatment. They had free access to water and consumed a standard laboratory diet from 4 h after administration. Blood was taken from the orbital venous plexus at 0, 0.083, 0.25, 0.5, 1, 2, 4, 6, 8, and 24 h after intragastric administration of the test compound (30 mg/kg). The blood samples were collected into heparin anticoagulated EP tubes and centrifuged at 8000 r/min for 5 min at 2−8 °C; the plasma was separated and stored at −70 °C for use. Plasma was centrifuged at 4000 rpm for 10 min at 2−8 °C and stored at −70 °C until analysis. Plasma samples were analysed by LC-MS/MS (AB Sciex API4000 QTRAP) equipped with an ESI ion resource and Analyst 1.5.1 software. The noncompartmental model analysis was used for calculating pharmacokinetic parameters with the WinNolin professional v6.3 program (Pharsight, USA).

Compound: Cc1ccnc(NS(=O)(=O)c2ccc(Nc3ncc4cc(C(=O)N(C)C)n(C5CCCC5)c4n3)cc2)n1 [2a, 7-cyclopentyl-N,N-dimethyl-2-((4-(N-(4-methylpyrimidin-2-yl)sulfamoyl)phenyl)amino)-7H-pyrrolo[2,3-d]pyrimidine-6-carboxamide]
- IC50 (MIA PaCa-2 cells): 13 ± 0.37 µM
- IC50 (MIA PaCa-2 cells; Homo sapiens, MIA PaCa-2, 72 h): > 10 µM
- inhibition at 0.05 µM (CDK9/cyclinT1): 100%

Compound: CN(C)C(=O)c1cc2cnc(Nc3ccc(S(=O)(=O)Nc4ccccn4)cc3)nc2n1C1CCCC1 [2c]
- solubility (in words) [1]: poor solubility
- IC50 (MIA PaCa-2 cells; Homo sapiens, MIA PaCa-2, 72 h): 18.8 ± 5.54 µM
- inhibition at 0.05 µM (CDK9/cyclinT1): 99.1%

Compound: CN(C)C(=O)c1cc2cnc(Nc3ccc(S(=O)(=O)Nc4ccc(Cl)cc4)cc3)nc2n1C1CCCC1 [2d, 2-((4-(N-(4-chlorophenyl)sulfamoyl)phenyl)amino)-7-cyclopentyl-N,N-dimethyl-7H-pyrrolo[2,3-d]pyrimidine-6-carboxamide]
- IC50 (MIA PaCa-2 cells; Homo sapiens, MIA PaCa-2, 72 h): 6.23 ± 1.25 µM
- IC50 (CDK7): > 10000 nM
- IC50 (CDK4): 148 nM
- inhibition at 0.05 µM (CDK9/cyclinT1): 91.8%
- IC50 (CDK9): 7.7 nM
- IC50 (CDK2): 7980 nM

Compound: CN(C)C(=O)c1cc2cnc(Nc3ccc(S(=O)(=O)N(C)C)cc3)nc2n1C1CCCC1 [2e, 7-Cyclopentyl-2-((4-(N,N-dimethylsulfamoyl)phenyl)amino)-N,N-dimethyl-7H-pyrrolo[2,3-d]pyrimidine-6-carboxamide]
- IC50 (MIA PaCa-2 cells; Homo sapiens, MIA PaCa-2, 72 h): 10.5 ± 0.74 µM
- inhibition at 0.05 µM (CDK9/cyclinT1): 89.3%

Compound: CN(C)C(=O)c1cc2cnc(Nc3ccc(S(C)(=O)=O)cc3)nc2n1C1CCCC1 [2f, 7-Cyclopentyl-N,N-dimethyl-2-((4-(methylsulfonyl)phenyl)amino)-7H-pyrrolo[2,3-d]pyrimidine-6-carboxamide]
- IC50 (MIA PaCa-2 cells; Homo sapiens, MIA PaCa-2, 72 h): 18.9 ± 2.12 µM
- inhibition at 0.05 µM (CDK9/cyclinT1): 96.5%

Compound: CN(C)C(=O)c1cc2cnc(Nc3ccc(S(=O)(=O)N(C)C)cn3)nc2n1C1CCCC1 [2j]
- IC50 (MIA PaCa-2 cells; Homo sapiens, MIA PaCa-2, 72 h): 69.1 ± 15.5 µM
- inhibition at 0.05 µM (CDK9/cyclinT1): 25%
- CDK9 inhibitory rate (%) @ 50nM (CDK9/cyclinT1): 25.8%

Compound: CN(C)C(=O)c1cc2cnc(Nc3ccc(N4CCNCC4)cn3)nc2n1C1CCCC1 [Ribociclib, reference compound]
- IC50 (MIA PaCa-2 cells; Homo sapiens, MIA PaCa-2, 72 h): 16.5 ± 7 µM
- inhibition at 0.05 µM (CDK9/cyclinT1): 16.9%

Compound: CN(C)C(=O)c1cc2cnc(Nc3ccc(S(=O)(=O)Nc4ncccn4)cc3)nc2n1C1CCCC1 [compound 2b, 7-Cyclopentyl-N,N-dimethyl-2-((4-(N-(pyrimidin-2-yl)sulfamoyl)phenyl)amino)-7H-pyrrolo[2,3-d]pyrimidine-6-carboxamide]
- solubility (in words) [1]: poor solubility
- IC50 (MIA PaCa-2 cells): 14.3 ± 0.21 µM
- IC50 (MIA PaCa-2 cells; Homo sapiens, MIA PaCa-2, 72 h): > 10 µM
- inhibition at 0.05 µM (CDK9/cyclinT1): 98.7%

Compound: CN(C)C(=O)c1cc2cnc(Nc3ccccc3)nc2n1C1CCCC1 [compound 2h]
- IC50 (MIA PaCa-2 cells; Homo sapiens, MIA PaCa-2, 72 h): 45.1 ± 16.6 µM
- inhibition at 0.05 µM (CDK9/cyclinT1): 93.2%

Compound: CN(C)C(=O)c1cc2cnc(Nc3ccc(S(N)(=O)=O)cn3)nc2n1C1CCCC1 [compound 2i, 7-Cyclopentyl-N,N-dimethyl-2-((5-sulfamoylpyridin-2-yl)amino)-7H-pyrrolo[2,3-d]pyrimidine-6-carboxamide]
- IC50 (MIA PaCa-2 cells; Homo sapiens, MIA PaCa-2, 72 h): > 100 µM
- inhibition at 0.05 µM (CDK9/cyclinT1): 27%
- CDK9 inhibitory rate (%) @ 50nM (CDK9/cyclinT1): 27.4%

The next lines start with the values.

- IC50 (MIA PaCa-2 cells; Homo sapiens, MIA PaCa-2, 72 h): 7.8 ± 1.04 µM
- IC50 (CDK7): > 10000 nM
- IC50 (CDK1): 550 nM
- IC50 (CDK4): 35 nM
- inhibition at 0.05 µM (CDK9/cyclinT1): 99.1%
- IC50 (CDK9): 6.3 nM
- IC50 (CDK2): 227 nM
Compound: CN1CCN(S(=O)(=O)c2ccc(Nc3ncc4cc(C(=O)N(C)C)n(C5CCCC5)c4n3)cc2)CC1 [5c, 7-Cyclopentyl-N,N-dimethyl-2-((4-((4-methylpiperazin-1-yl)sulphonyl)phenyl)amino)-7H-pyrrolo[2,3-d]pyrimidine-6-carboxamide]

- IC50 (MIA PaCa-2 cells; Homo sapiens, MIA PaCa-2, 72 h): 2.85 ± 0.52 µM
- IC50 (CDK7): > 10000 nM
- IC50 (CDK1): 906 nM
- IC50 (CDK4): 170 nM
- inhibition at 0.05 µM (CDK9/cyclinT1): 80.6%
- IC50 (CDK9): 20 nM
- IC50 (CDK2): 2340 nM
Compound: CC1CCN(S(=O)(=O)c2ccc(Nc3ncc4cc(C(=O)N(C)C)n(C5CCCC5)c4n3)cc2)CC1 [5d, 7-Cyclopentyl-N,N-dimethyl-2-((4-((4-methylpiperidin-1-yl)sulphonyl)phenyl)amino)-7H-pyrrolo[2,3-d]pyrimidine-6-carboxamide]

- IC50 (MIA PaCa-2 cells; Homo sapiens, MIA PaCa-2, 72 h): 4.35 ± 1.61 µM
- IC50 (CDK7): > 10000 nM
- IC50 (CDK1): 439 nM
- IC50 (CDK4): 52 nM
- inhibition at 0.05 µM (CDK9/cyclinT1): 81.8%
- IC50 (CDK9): 13 nM
- IC50 (CDK2): 236 nM
Compound: CN(C)C(=O)c1cc2cnc(Nc3ccc(S(=O)(=O)N4CCOCC4)cc3)nc2n1C1CCCC1 [5e, 7-Cyclopentyl-N,N-dimethyl-2-((4-(morpholinosulfonyl)phenyl)amino)-7H-pyrrolo[2,3-d]pyrimidine-6-carboxamide]

- IC50 (MIA PaCa-2 cells; Homo sapiens, MIA PaCa-2, 72 h): 40.8 ± 3.26 µM
- inhibition at 0.05 µM (CDK9/cyclinT1): -3.1%
Compound: COc1ccccc1NC(=O)c1cc2cnc(Nc3ccc(S(=O)(=O)Nc4nc(C)cc(C)n4)cc3)nc2n1C1CCCC1 [10a, 7-Cyclopentyl-2-((4-(N-(4,6-dimethylpyrimidin-2-yl)sulfamoyl)phenyl)amino)-N-(2-methoxyphenyl)-7H-pyrrolo[2,3-d]pyrimidine-6-carboxamide]

- IC50 (MIA PaCa-2 cells; Homo sapiens, MIA PaCa-2, 72 h): 80.8 ± 16 µM
- inhibition at 0.05 µM (CDK9/cyclinT1): 54%
- CDK9 inhibitory rate (%) @ 50nM (CDK9/cyclinT1): 54.4%
Compound: COc1ccccc1NC(=O)c1cc2cnc(Nc3ccc(S(=O)(=O)Nc4ncccn4)cc3)nc2n1C1CCCC1 [10b, 7-Cyclopentyl-N-(2-methoxyphenyl)-2-((4-(N-(pyrimidin-2-yl)sulfamoyl)phenyl)amino)-7H-pyrrolo[2,3-d]pyrimidine-6-carboxamide]

- IC50 (MIA PaCa-2 cells; Homo sapiens, MIA PaCa-2, 72 h): 0.94 ± 0.25 µM
- IC50 (BxPC-3): 0.249 ± 0.099 µM
- IC50 (AsPC-1): 1.48 ± 0.09 µM
- IC50 (CDK7): 4970 nM
- IC50 (CDK1): 333 nM
- IC50 (PANC-1): 5.81 ± 1.38 µM
- IC50 (CDK4): 20 nM
- inhibition at 0.05 µM (CDK9/cyclinT1): 98.2%
- Cmax (Oral PK study in rats; single oral administration, read-out: maximum plasma drug concentration (Cmax)): 1.08 µg/mL
- AUC (Oral PK study in rats; single oral administration, read-out: systematic exposure (AUC0‑t)): 4.43 µg·h/mL
- AUC(0-inf) (Oral PK study in rats; oral, n = 3): 4.78 ± 2.16 µg·h/mL
- AUC(0-t) (Oral PK study in rats; oral, n = 3): 4.43 ± 1.62 µg·h/mL
- MRT (Oral PK study in rats; oral, n = 3): 3.62 ± 0.83 h
- Tmax (Oral PK study in rats; oral, n = 3): 1.17 h
- half-life (Oral PK study in rats; oral, n = 3): 2.2 ± 0.9 h
- Cmax (Oral PK study in rats; oral, n = 3, read-out: Cmax): 2 µM
- IC50 (CDK9): 3.2 nM
- IC50 (CDK2): 147 nM
Compound: CN(C)C(=O)c1cc2cnc(Nc3ccc(S(=O)(=O)N4CCNCC4)cc3)nc2n1C1CCCC1.O=C(O)C(F)(F)F [compound 5b, 7-Cyclopentyl-N,N-dimethyl-2-((4-(piperazin-1-ylsulfonyl)phenyl)amino)-7H-pyrrolo[2,3-d]pyrimidine-6-carboxamide trifluoroacetate]

Source: article PMC9858427, “Design, synthesis and biological evaluation of 2-((4-sulfamoylphenyl)amino)-pyrrolo[2,3-d]pyrimidine derivatives as CDK inhibitors” (Journal of Enzyme Inhibition and Medicinal Chemistry, 2023)
